The source of these data is patent US20200061173A1, “IMMUNOGENIC COMPOSITION COMPRISING SURVIVIN PEPTIDES” (Vaxeal Research SAS, priority 2016, published 2020).

In this assay the test system is Survivin peptides-specific T cell responses. Kind of assay: T cell immunogenicity in mouse strains, ex vivo IFN-γ ELISpot on total splenocytes. The conditions noted are these: splenocytes re-stimulated with the individual SVX-1 peptides. Here is the method: T cell immunogenicity of the mixture and individual Survivin derived polypeptides (S1, S2 and S3) was evaluated in different mouse strains (C57BL/6 (H2^b); BALB/c (H2^d) and CBA (H2^k)) and in the pre-clinical mouse model HLA-DRB1*0101, HLA-A*0201 (with α3 from D^b), H-2^/ transgenic mice (Tg HLA-A2/DR1). The objective of this study was to select the optimal genetic background to further investigate the immunogenicity and therapeutic efficacy of the SVX-1 vaccine composes of an equimolar mixture of these 3 Survivin LSPs.
Six (6) to ten (10) weeks old female C57BL/6, BALB/c, and CBA mice were obtained from Charles River (Saint-Germain-Nuelles, France).
The transgenic HLA-A2/DR1 mice, previously described (Pajot et al. 2004), were bred and maintained under specific pathogen-free conditions in an animal facility. […] One week after the last immunization (D21), spleen cells of immunized mice were harvested, and the induction of Survivin peptides-specific T cell responses was detected ex vivo using IFN-γ ELISpot assay on the total splenocytes (2×10^5 cells) re-stimulated overnight with the mix of peptides or the individual peptides. […]

Consider “HRISTFKNWPFLEGCACT (alpha-isoform survivin S1 positions 17-34) [18 amino acid peptide consisting of wild type Survivin amino acids 17-34]”, for which the “T cell responses against individual peptides in CBA mice” value is reported as “mainly directed against the S1 peptides”.
